In brackets after ≈: the same amount, converted by molar mass. Structures can show the parent of a compound that is named as a salt. Where two headings read alike, the source gives them in different places.
How the values were obtained:
[1] = tested on: H37RvMA; test: Tuberculosis Alamar Blue/Resazurin assay (MIC); type: cell-based; details: read-out: WT H37Rv MTB Activity
[2] = tested on: E. coli; test: Gram negative MIC protocol (OD600, LB, 24 h); details: for MIC: Escherichia coli
Experimental: (§1) Overnight bacterial cultures were grown in LB with no added antibiotics at 37° C. with shaking. A 1:1000 dilution of these cultures into LB was exposed to concentration gradients of compounds in 96-well plates (100 μL per well assay volume). Resulting plates were incubated at 37° C. for 24 h without shaking, and OD600 was measured at the end of the incubation. MICs were determined as the lowest concentrations at which OD600 remained at baseline.

[3] = tested on: A. baumannii; test: Gram negative MIC protocol (OD600, LB, 24 h); details: for MIC: Acinetobacter baumannii
Experimental: as §1

[4] = Mycobacterium tuberculosis, H37RV, WT H37Rv MTB
[5] = read-out: MIC E. coli delta-TolC LB Media, E. coli delta-TolC, LB media, OD600
[6] = read-out: MIC WT E. coli LB Media, WT E. coli, LB media, OD600
[7] = read-out: MIC A. baumannii LB Media, A. baumannii, LB media, 24 h, OD600
[8] = read-out: MIC E. coli delta-TolC LB Media, E. coli delta-TolC strain, LB media, 24 h, OD600
[9] = read-out: MIC WT E. coli LB Media, wild-type E. coli, LB media, 24 h, OD600
[10] = Mycobacterium tuberculosis, H37RV
[11] = read-out: MIC A. baumannii LB Media

Row | Compound | MIC [1, 4] | MIC [2, 5] | MIC [2, 6] | MIC [3, 7] | MIC [2, 8] | MIC [2, 9] | further results
1 | O=C1Cc2ccccc2CN1CCCC1CCCCC1 [B416, 2-(3-cyclohexylpropyl)-1,4-dihydroisoquinolin-3(2H)-one] | 2.5 µM (≈ 0.679 µg/mL) | 55 µM (≈ 14.9 µg/mL) | > 150 µM | > 150 µM |  |  | 
2 | CC(CC1CCOCC1)NCc1ccccc1 (stereo not drawn) [B29] | > 150 µM | > 150 µM | > 150 µM | > 150 µM |  |  | 
3 | CC(CC1CCCCC1)NCc1ccccc1OCC(=O)N(C)Cc1ccco1 (stereo not drawn) [B318] | 150 µM (≈ 59.8 µg/mL) |  |  | > 150 µM | 7 µM (≈ 2.79 µg/mL) | > 150 µM | 
4 | c1ccc(OCC2CCOCC2)c(CNCCC2CCCCC2)c1 [B331, 2-cyclohexyl-N-(2-((tetrahydro-2H-pyran-4-yl)methoxy)benzyl)ethanamine] | > 150 µM |  |  | > 150 µM | 33 µM (≈ 10.9 µg/mL) | > 150 µM | 
5 | COC(=O)Cc1cccc(CNCCC2CCCCC2)c1 [B440, methyl 2-(3-(((2-cyclohexylethyl)amino)methyl)phenyl)acetate] | 150 µM (≈ 43.4 µg/mL) | > 150 µM | > 150 µM | > 150 µM |  |  | 
6 | C1=C(CCNCc2ccncc2)CCCC1 [B15] |  |  |  |  |  |  | MIC ([1]; WT H37Rv MTB): >150 µM; MIC E. coli delta-TolC LB Media ([2]; E. coli delta-TolC, LB media, OD600): >150 µM; MIC WT E. coli LB Media ([2]; WT E. coli, LB media, OD600): >150 µM; MIC A. baumannii LB Media ([3]; A. baumannii, LB media, OD600): >150 µM
7 | OC(CNCc1ccccc1)c1ccc2ccccc2c1 (stereo not drawn) [B138] | > 150 µM | > 150 µM | > 150 µM | > 150 µM |  |  | 
8 | CC(CC1CCCCC1)NCc1ccccc1OC1CC2CCC1C2 (stereo not drawn) [B390, N-(2-(bicyclo[2.2.1]heptan-2-yloxy)benzyl)-1-cyclohexylpropan-2-amine] | 20.2 µM (≈ 6.9 µg/mL) |  |  | 55 µM (≈ 18.8 µg/mL) | 3 µM (≈ 1.02 µg/mL) | 150 µM (≈ 51.2 µg/mL) | 
9 | CC(CC1CCCCC1)NCc1ccccc1OCC(=O)NC(N)=O (stereo not drawn) [B335] | > 150 µM |  |  | 150 µM (≈ 52.1 µg/mL) | 4 µM (≈ 1.39 µg/mL) | 55 µM (≈ 19.1 µg/mL) | 
10 | CCOCCOc1ccccc1CNC(C)CC1CCCCC1 (stereo not drawn) [B313] | > 150 µM |  |  | > 150 µM | 7 µM (≈ 2.24 µg/mL) | > 150 µM | 
11 | CCOCOc1ccccc1CNC(C)CC1CCCCC1 (stereo not drawn) [B311] | > 150 µM |  |  | > 150 µM | 7 µM (≈ 2.14 µg/mL) | > 150 µM | 
12 | c1ccc(CNC2Cc3ccccc3C2)cc1 [B206, N-benzyl-2,3-dihydro-1H-inden-2-amine hydrochloride] | > 150 µM |  |  | > 300 µM | > 300 µM | > 300 µM | 
13 | COc1cccc(CNCCC2CCCCC2)c1 [B353] | > 150 µM |  |  | > 150 µM | > 150 µM | > 150 µM | 
14 | c1ccc(CNCCC2CCCC2)cc1 [B128] | > 150 µM | > 150 µM | > 150 µM | > 150 µM |  |  | 
15 | CCC(CC1CCCCC1)NCc1ccccc1 (stereo not drawn) [B164, N-benzyl-1-cyclohexylbutan-2-amine] | > 150 µM | 60 µM (≈ 14.7 µg/mL) | > 300 µM | > 150 µM |  |  | 
16 | NS(=O)(=O)Cc1ccccc1CNCCC1CCCCC1 [B380] | > 150 µM |  |  | > 150 µM | 12 µM (≈ 3.73 µg/mL) | 33 µM (≈ 10.2 µg/mL) | 
17 | c1ccc(CNCC2Cc3ccccc32)cc1 (stereo not drawn) [B22] | > 150 µM | > 150 µM | > 150 µM | > 150 µM |  |  | 
18 | CC(CC1CCCCC1)NCc1ccccc1OCC(=O)N1CCNC1=O (stereo not drawn) [B347] | > 150 µM |  |  | > 150 µM | 4 µM (≈ 1.49 µg/mL) | 150 µM (≈ 56 µg/mL) | 
19 | COc1ccccc1CNCCC1CCCCC1 [B253, 2-cyclohexyl-N-(2-methoxybenzyl)ethanamine hydrochloride] | > 150 µM |  |  | > 150 µM | 37 µM | 150 µM | 
20 | CCOc1ccccc1CNC(C)CC1CCCCC1 (stereo not drawn) [B293] | > 150 µM |  |  | > 150 µM | 4 µM (≈ 1.1 µg/mL) | 150 µM (≈ 41.3 µg/mL) | 
21 | c1ccc(CNCC2CC3CCC2C3)cc1 (stereo not drawn) [B43] | > 150 µM | > 150 µM | > 150 µM | > 150 µM |  |  | 
22 | CC(CC1CCCCC1)NCc1ccccc1OCCCN(C)C1CCCC1 (stereo not drawn) [B344] | 150 µM (≈ 58 µg/mL) |  |  | 91 µM (≈ 35.2 µg/mL) | 91 µM (≈ 35.2 µg/mL) | 150 µM (≈ 58 µg/mL) | 
23 | c1ccc(CNCCC2COc3ccccc3O2)cc1 (stereo not drawn) [B46] | > 150 µM | > 150 µM | > 150 µM | > 150 µM |  |  | 
24 | c1ccc(-c2cccc3ccccc23)c(CNCCC2CCCCC2)c1 [B238, 2-cyclohexyl-N-(2-(naphthalen-1-yl)benzyl)ethanamine hydrochloride] | 55 µM |  |  | 54 µM | 10 µM | > 300 µM | 
25 | c1ccc(Oc2ccccc2CNCCC2CCCCC2)cc1 [B232, 2-cyclohexyl-N-(2-phenoxybenzyl)ethanamine hydrochloride] | 91 µM |  |  | 96 µM | 17 µM | 170 µM | 
26 | C[C@H](CC1CCCCC1)NCc1ccccc1 [B95] |  | > 150 µM | > 150 µM |  |  |  | MIC [1, 10]: 55 µM (≈ 12.7 µg/mL); MIC [3, 11]: > 150 µM
27 | COC(=O)CCCOc1ccccc1CNC(C)CC1CCCCC1 (stereo not drawn) [B276] | > 150 µM |  |  | > 150 µM | 4 µM (≈ 1.39 µg/mL) | > 150 µM | 

Row | Compound | MIC [1, 4] | MIC [2, 5] | MIC [2, 6] | MIC [3, 7] | MIC [2, 8] | MIC [2, 9] | further results
28 | Cc1noc(C)c1CC(C)NCc1ccccc1 (stereo not drawn) [B26] |  | > 150 µM | > 150 µM | > 150 µM |  |  | MIC [1, 10]: > 150 µM
29 | CC1CCC(Oc2ccccc2CNC(C)CC2CCCCC2)CC1 (stereo not drawn) [B394, 1-cyclohexyl-N-(2-((4-methylcyclohexyl)oxy)benzyl)propan-2-amine] | 20.2 µM (≈ 6.94 µg/mL) |  |  | 55 µM (≈ 18.9 µg/mL) | 3 µM (≈ 1.03 µg/mL) | 150 µM (≈ 51.5 µg/mL) | 
30 | C1=C(CNCc2ccccc2)CCCC1 [B63] | > 150 µM | > 150 µM | > 150 µM | > 150 µM |  |  | 
31 | Fc1ccc(CC2(NCc3ccccc3)CC2)cc1 [B97] |  | > 150 µM | > 150 µM | > 150 µM |  |  | MIC [1, 10]: > 150 µM
32 | C1=C(CCNCCc2ccccc2)CCCC1 [B151] |  | > 150 µM | > 150 µM | > 150 µM |  |  | MIC [1, 10]: > 150 µM
33 | CC1CC(C)CC(C(C)NCc2ccccc2)C1 (stereo not drawn) [B79] | 91 µM (≈ 22.3 µg/mL) | > 150 µM | > 150 µM | > 150 µM |  |  | 
34 | NCc1cccc(CNCCC2CCCCC2)c1 [B355] | > 150 µM |  |  | > 150 µM | > 150 µM | > 150 µM | 
35 | CC(CC1CCCCC1)NCc1ccccc1OCc1cn(C)nn1 (stereo not drawn) [B300] | > 150 µM |  |  | > 150 µM | 12 µM (≈ 4.11 µg/mL) | > 150 µM | 
36 | CC(CC1CCCCC1)NCc1ccccc1OCC(N)=O (stereo not drawn) [B338] | > 150 µM |  |  | > 150 µM | 12 µM (≈ 3.65 µg/mL) | 91 µM (≈ 27.7 µg/mL) | 
37 | COc1cccc(OCCOc2ccccc2CNC(C)CC2CCCCC2)c1 (stereo not drawn) [B266] | 55 µM (≈ 21.9 µg/mL) |  |  | 33 µM (≈ 13.1 µg/mL) | 2 µM (≈ 0.795 µg/mL) | 150 µM (≈ 59.6 µg/mL) | 
38 | CC1CCc2ccccc2N1CCNCc1ccccc1 (stereo not drawn) [B145] | 91 µM (≈ 25.5 µg/mL) | > 150 µM | > 150 µM | > 150 µM |  |  | 
39 | c1ccc(CNCC2C3CC4CC(C3)CC2C4)cc1 (stereo not drawn) [B59] | 33 µM (≈ 8.43 µg/mL) | > 150 µM | > 150 µM | > 150 µM |  |  | 
40 | COc1ccc2c(c1)CCCC2CNCc1ccccc1 (stereo not drawn) [B112] | > 150 µM | > 150 µM | > 150 µM | > 150 µM |  |  | 
41 | c1ccc(CNC2CCCCC2)cc1 [B7] | > 150 µM | > 150 µM | > 150 µM | > 150 µM |  |  | 
42 | CC(CC1CCOC1)NCc1ccccc1 (stereo not drawn) [B31] | > 150 µM | > 150 µM | > 150 µM | > 150 µM |  |  | 
43 | CC(C)(C)OC(=O)N1CCC(CCNCc2ccccc2)CC1 [B216, tert-butyl 4-(2-(benzylamino)ethyl) piperidine-1-carboxylate] | > 150 µM |  |  | > 300 µM | > 300 µM | > 300 µM | 
44 | CC(CC1CCCC1)NCc1ccccc1 (stereo not drawn) [B38] |  | 90 µM (≈ 19.6 µg/mL) | 91 µM (≈ 19.8 µg/mL) |  |  |  | MIC [1, 10]: > 150 µM; MIC [3, 11]: 150 µM (≈ 32.6 µg/mL)
45 | CCCNC(=O)COc1ccccc1CNC(C)CC1CCCCC1 (stereo not drawn) [B242] | > 150 µM |  |  | > 150 µM | 12 µM (≈ 4.16 µg/mL) | > 150 µM | 
46 | CC(CC1CCCCC1)NCc1ccccc1OCC1CNC(=O)C1 (stereo not drawn) [B403] | > 150 µM | 7 µM (≈ 2.41 µg/mL) | > 150 µM | > 150 µM |  |  | 
47 | Cc1nnc(COc2ccccc2CNC(C)CC2CCCCC2)o1 (stereo not drawn) [B279] | > 150 µM |  |  | > 150 µM | 12 µM (≈ 4.12 µg/mL) | > 150 µM | 
48 | Brc1ccc(CC2(NCc3ccccc3)CC2)cc1 [B91] |  | 90 µM (≈ 28.5 µg/mL) | > 150 µM | > 150 µM |  |  | MIC [1, 10]: > 150 µM
49 | CC1CCCC(Oc2ccccc2CNC(C)CC2CCCCC2)C1 (stereo not drawn) [B391, 1-cyclohexyl-N-(2-((3-methylcyclohexyl)oxy)benzyl)propan-2-amine] | 20.2 µM (≈ 6.94 µg/mL) |  |  | 91 µM (≈ 31.3 µg/mL) | 3 µM (≈ 1.03 µg/mL) | 150 µM (≈ 51.5 µg/mL) | 
50 | CC(NCc1ccccc1)C1(C)CC1 (stereo not drawn) [B149] | > 150 µM | > 150 µM | > 150 µM | > 150 µM |  |  | 
51 | FC1(F)CCC(CCNCc2ccccc2)CC1 [B212, N-benzyl-2-(4,4-difluorocyclohexyl)ethanamine hydrochloride] | > 150 µM |  |  | > 300 µM | > 300 µM | > 300 µM | 
52 | COC(=O)c1cccc(CNCCC2CCCCC2)c1 [B349] | > 150 µM |  |  | > 150 µM | > 150 µM | > 150 µM | 
53 | CC(NCc1ccccc1)C1C(C)(C)C1(C)C (stereo not drawn) [B77] | > 150 µM | > 150 µM | > 150 µM | > 150 µM |  |  | 
54 | CC(Cc1ccccn1)NCc1ccccc1 (stereo not drawn) [B75] |  | > 150 µM | > 150 µM | > 150 µM |  |  | MIC [1, 10]: > 150 µM

From patent US11261201B2 (priority 2018, dated 2022)
